Reference: patent publication US11840686B2, “Modulation of prekallikrein (PKK) expression” (Ionis Pharmaceuticals, Inc., priority 2013, dated 2023)
Strand notation (5' to 3'): a small letter for the sugar, then the base; units joined by * are phosphorothioate-linked, units joined directly phosphodiester-linked; [ ] holds rarer units or linkages, { } end groups; capitals alone tell only the bases. e = 2'-O-(2-methoxyethyl) (MOE); [5mC] = 5-methylcytosine; d = 2'-deoxy (DNA)

Assays:
human PKK mRNA [1] = experiment: Dose-dependent antisense inhibition of human PKK in HepaRG cells, 0.19-5.00 uM (Example 5); type: cell-based; details: for percent inhibition of PKK mRNA, 0.19 μM: 0.19 μM antisense oligonucleotide; for percent inhibition of PKK mRNA, 0.56 μM: 0.56 μM antisense oligonucleotide; for percent inhibition of PKK mRNA, 1.67 μM: 1.67 μM antisense oligonucleotide; for percent inhibition of PKK mRNA, 5.00 μM: 5.00 μM antisense oligonucleotide
Method in brief: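 PKK mRNA knockdown was measured by real-time PCR (primer probe set RTS3454) about 16 h after electroporating 20,000 HepaRG cells per well with oligonucleotide at four doses from 0.19 to 5.00 μM. Levels were adjusted to RIBOGREEN-measured total RNA, and IC50 values were calculated.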

human PKK mRNA [2] = experiment: Antisense inhibition of human PKK mRNA in HepaRG cells, 5,000 nM (Example 2); type: cell-based
Method in brief: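 qRT-PCR (RTS3454) read-out, RIBOGREEN-normalized; % inhibition vs untreated cells. HepaRG, 20,000 cells/well, electroporation, 5,000 nM ASO, ~24 h.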

[3] = Table 34, HepaRG, electroporation, ~16 h
[4] = Table 34, PKK mRNA, HepaRG, electroporation, ~16 h
[5] = Table 13, human PKK mRNA in HepaRG cells, 5-10-5 gapmers
[6] = HepaRG cells, electroporation, approximately 16 hours, Table 37
[7] = 4 point dose response, HepaRG cells, Table 37
[8] = human PKK mRNA in HepaRG cells, 5-10-5 gapmers, Table 14
[9] = HepaRG cells, electroporation, approximately 16 hours, Table 36
[10] = 4 point dose response, HepaRG cells, Table 36
[11] = HepaRG cells, electroporation, approximately 16 hours, Table 40
[12] = 4 point dose response, HepaRG cells, Table 40
[13] = HepaRG cells, electroporation, approximately 16 hours, Table 39

546846 (e[5mC]*eT*eG*eT*e[5mC]*d[5mC]*dT*dA*dT*dA*dT*d[5mC]*dA*d[5mC]*dT*eG*eT*e[5mC]*e[5mC]*eT; antisense) [compound 546846]
percent inhibition of PKK at 0.19 0μM (human PKK mRNA [1]; 0.19 0μM, HepaRG cells, electroporation, approximately 16 hours, Table 41): 26% | percent inhibition of PKK at 0.56 0μM (human PKK mRNA [1]; 0.56 0μM, HepaRG cells, electroporation, approximately 16 hours, Table 41): 49% | percent inhibition of PKK at 1.67 1μM (human PKK mRNA [1]; 1.67 1μM, HepaRG cells, electroporation, approximately 16 hours, Table 41): 85% | IC50 (human PKK mRNA [1]; 4 point dose response, HepaRG cells, Table 41): 0.5 µM | percent inhibition of PKK at 0.19 μM (human PKK mRNA [1]; [3]): 36% | percent inhibition of PKK at 0.56 μM (human PKK mRNA [1]; [3]): 45% | percent inhibition of PKK at 1.67 μM (human PKK mRNA [1]; [3]): 71% | percent inhibition of PKK at 5.00 μM (human PKK mRNA [1]; [3]): 82% | IC50 (human PKK mRNA [1]; [4]): 0.5 µM | % inhibition (human PKK mRNA [2]; [5]): 95%

547622 (antisense eG*eT*e[5mC]*eA*e[5mC]*dT*dG*dT*dA*d[5mC]*d[5mC]*dT*dA*dT*dA*eA*e[5mC]*eT*e[5mC]*eT) [compound 547622]
percent inhibition of PKK at 0.19 μM (human PKK mRNA [1]; [6]): 0% | percent inhibition of PKK at 0.56 μM (human PKK mRNA [1]; [6]): 47% | percent inhibition of PKK at 1.67 μM (human PKK mRNA [1]; [6]): 79% | percent inhibition of PKK at 5.00 μM (human PKK mRNA [1]; [6]): 90% | IC50 (human PKK mRNA [1]; [7]): 0.9 µM | % inhibition (human PKK mRNA [2]; [8]): 88%

546986 (e[5mC]*eA*eG*eG*eA*dT*dA*dG*dA*dA*d[5mC]*dT*dG*dA*dT*eG*eG*eT*e[5mC]*e[5mC]; antisense) [compound 546986]
percent inhibition of PKK at 0.19 μM (human PKK mRNA [1]; [9]): 31% | percent inhibition of PKK at 0.56 μM (human PKK mRNA [1]; [9]): 49% | percent inhibition of PKK at 1.67 μM (human PKK mRNA [1]; [9]): 77% | percent inhibition of PKK at 5.00 μM (human PKK mRNA [1]; [9]): 89% | IC50 (human PKK mRNA [1]; [10]): 0.5 µM | percent inhibition of PKK mRNA, 0.19 μM (human PKK mRNA [1]; HepaRG cells): 7% | percent inhibition of PKK mRNA, 0.56 μM (human PKK mRNA [1]; HepaRG cells): 28% | percent inhibition of PKK mRNA, 1.67 μM (human PKK mRNA [1]; HepaRG cells): 69% | percent inhibition of PKK mRNA, 5.00 μM (human PKK mRNA [1]; HepaRG cells): 86% | IC50 (human PKK mRNA [1]; HepaRG cells, 0.19-5.00 μM): 1.1 µM | % inhibition (human PKK mRNA [2]; HepaRG cells, 5,000 nM antisense oligonucleotide, 5-10-5 gapmers, Table 16): 91%

547374 (eG*eA*eT*eA*eG*dG*dT*dG*d[5mC]*dA*dG*dA*dT*dG*dG*eT*e[5mC]*e[5mC]*eG*eA; antisense) [compound 547374]
percent inhibition of PKK at 0.19 μM (human PKK mRNA [1]; [11]): 0% | percent inhibition of PKK at 0.56 μM (human PKK mRNA [1]; [11]): 15% | percent inhibition of PKK at 1.67 μM (human PKK mRNA [1]; [11]): 24% | percent inhibition of PKK at 5.00 μM (human PKK mRNA [1]; [11]): 44% | IC50 (human PKK mRNA [1]; [12]): > 5 µM | % inhibition (human PKK mRNA [2]; Table 7, HepaRG cells, electroporation with 5,000 nM antisense oligonucleotide, approx. 24 hours, PKK mRNA by RT-PCR (RTS3454), relative to untreated control cells): 81%

548743 (DNA e[5mC]*eA*e[5mC]*eT*dG*dT*dA*d[5mC]*dT*dA*dG*dT*dT*eT*e[5mC]*e[5mC]*eT; antisense) [compound 548743]
percent inhibition of PKK at 0.19 μM (human PKK mRNA [1]; [11]): 25% | percent inhibition of PKK at 0.56 μM (human PKK mRNA [1]; [11]): 57% | percent inhibition of PKK at 1.67 μM (human PKK mRNA [1]; [11]): 73% | percent inhibition of PKK at 5.00 μM (human PKK mRNA [1]; [11]): 88% | IC50 (human PKK mRNA [1]; [12]): 0.5 µM | percent inhibition of PKK mRNA, 0.19 μM (human PKK mRNA [1]; HepaRG cells): 22% | percent inhibition of PKK mRNA, 0.56 μM (human PKK mRNA [1]; HepaRG cells): 47% | percent inhibition of PKK mRNA, 1.67 μM (human PKK mRNA [1]; HepaRG cells): 74% | percent inhibition of PKK mRNA, 5.00 μM (human PKK mRNA [1]; HepaRG cells): 96% | IC50 (human PKK mRNA [1]; HepaRG cells, 0.19-5.00 μM): 0.6 µM | % inhibition (human PKK mRNA [2]; human PKK mRNA, HepaRG cells, 5,000 nM antisense oligonucleotide, Table 18): 80%

547413 (eG*eT*eG*eA*eA*dA*dA*dA*d[5mC]*dT*dG*dA*d[5mC]*dA*dG*e[5mC]*eG*eA*eA*eT; antisense) [compound 547413]
percent inhibition of PKK at 0.19 μM (human PKK mRNA [1]; [3]): 0% | percent inhibition of PKK at 0.56 μM (human PKK mRNA [1]; [3]): 0% | percent inhibition of PKK at 1.67 μM (human PKK mRNA [1]; [3]): 41% | percent inhibition of PKK at 5.00 μM (human PKK mRNA [1]; [3]): 83% | IC50 (human PKK mRNA [1]; [4]): 2.2 µM | % inhibition (human PKK mRNA [2]; Table 8, HepaRG cells, electroporation with 5,000 nM antisense oligonucleotide, approx. 24 hours, PKK mRNA by RT-PCR (RTS3454), relative to untreated control cells): 94%

547454 (antisense eT*eA*eT*e[5mC]*eA*dT*dG*dA*dT*dT*d[5mC]*d[5mC]*d[5mC]*dT*dT*e[5mC]*eT*eG*eA*eG) [compound 547454]
percent inhibition of PKK at 0.19 μM (human PKK mRNA [1]; [9]): 19% | percent inhibition of PKK at 0.56 μM (human PKK mRNA [1]; [9]): 40% | percent inhibition of PKK at 1.67 μM (human PKK mRNA [1]; [9]): 58% | percent inhibition of PKK at 5.00 μM (human PKK mRNA [1]; [9]): 92% | IC50 (human PKK mRNA [1]; [10]): 0.9 µM | % inhibition (human PKK mRNA [2]; Table 9 experiment, HepaRG cells, 20,000 cells per well, electroporation with 5,000 nM antisense oligonucleotide, approx. 24 hours, PKK mRNA by RT-PCR (RTS3454), relative to untreated control cells): 92% | % inhibition (human PKK mRNA [2]; Table 10 experiment, HepaRG cells, 20,000 cells per well, electroporation with 5,000 nM antisense oligonucleotide, approx. 24 hours, PKK mRNA by RT-PCR (RTS3454), relative to untreated control cells): 78%

546848 (eT*e[5mC]*eA*e[5mC]*eT*dG*dT*d[5mC]*d[5mC]*dT*dA*dT*dA*dT*d[5mC]*eA*e[5mC]*eT*eG*eT; antisense) [compound 546848]
percent inhibition of PKK at 0.19 μM (human PKK mRNA [1]; [13]): 0% | percent inhibition of PKK at 0.56 μM (human PKK mRNA [1]; [13]): 18% | percent inhibition of PKK at 1.67 μM (human PKK mRNA [1]; [13]): 91% | percent inhibition of PKK at 5.00 μM (human PKK mRNA [1]; [13]): 97% | IC50 (human PKK mRNA [1]; 4 point dose response, HepaRG cells, Table 39): 1 µM | % inhibition (human PKK mRNA [2]; [5]): 86%

547618 (antisense eA*e[5mC]*eT*eG*eT*d[5mC]*d[5mC]*dT*dA*dT*dA*dT*d[5mC]*dA*d[5mC]*eT*eG*eT*eA*e[5mC]) [compound 547618]
percent inhibition of PKK at 0.19 μM (human PKK mRNA [1]; [6]): 0% | percent inhibition of PKK at 0.56 μM (human PKK mRNA [1]; [6]): 0% | percent inhibition of PKK at 1.67 μM (human PKK mRNA [1]; [6]): 73% | percent inhibition of PKK at 5.00 μM (human PKK mRNA [1]; [6]): 98% | IC50 (human PKK mRNA [1]; [7]): 1.3 µM | % inhibition (human PKK mRNA [2]; [8]): 87%
